Assay results reported in US20230405003A1, “APPLICATION OF THYMIDINE DERIVATIVE IN PREPARATION OF DRUGS” (ONQUALITY PHARMACEUTICALS CHINA LTD., priority 2020, published 2023).
Read-outs that look alike come from different tables or passages of the source.

How the values were obtained:
[1] = system: blood cells; assay: Blood cell count after 5-FU diarrhea experiment in mice; type: in vivo, mouse; details: orbital blood after 5-FU 70 mg/kg/d i.p. three days
Text: After completion of the experiments, the mice in the 5-FU control group and the experimental group were subject to blood collection at orbital. Blood cells were counted.

[2] = system: pain in capecitabine hand-foot syndrome rats; assay: Pain of hand-foot syndrome, mechanical sensitivity in rats (von Frey); type: in vivo, rat; details: capecitabine 4000 mg/kg hand-foot syndrome rats; thymidine derivative 3%
Experimental: According to the method of Examples 91-115, after administration of a thymidine derivative (at a concentration of 3%) and co-administration of a thymidine derivative (at a concentration of 1%) with a uridine derivative (at a concentration of 3%) to rat hand-foot syndrome models constructed from 4000 mg/kg of capecitabine for a period of time, pain analysis was performed on the rats, and the pain assessment model was mechanical sensitivity in rats (von Frey). The experimental steps were as follows: first, the rats were allowed to adapt in the room for 1 hour, then the rats were placed in an observation box with a metal mesh floor, and the mice were allowed to stay in the box for 20 minutes to adapt to the experimental platform. Next, a von Frey device was used to detect paw pain by stimulating the surface of the rat's palm with specially designed cilia to detect the mechanical sensitivity of the animal at strength of 0.4 g, 0.8 g, 1.5 g, 2.5 g, 4 g, 8 g, 10 g and 20 g (IITC Life Science, Woodland Hills, 2390 series). […] The rat movement response was considered to be a vague response, in which case the stimulation experiment was repeated.

[3] = system: hand-foot syndrome caused by capecitabine in SD rats; assay: Rat model of hand-foot syndrome caused by capecitabine, gel application; type: in vivo; details: capecitabine 4000 mg/kg once daily, 40 days; for Control Rate Forepaws / Control Rate Hindpaws / inhibition in vivo at 3 % / inhibition in vivo at 5 %: rats; for inhibition in vivo at 3 % / inhibition in vivo at 5 %: Rattus norvegicus, topical, 960 h; for inhibition in vivo at 5 %: gel 5 wt%
Experimental: A rat animal model was established. 6-week aged female SD rats were administered with capecitabine by daily gavage. The degree of hand-foot syndrome in paws is similar, and there was no difference between the left and right paws. Similar to the human body, rats developed hand-foot syndrome after oral administration of capecitabine. The causes of the two are the same, and the disorder is also very similar. Therefore, rats are very good animal models for simulating the hand-foot syndrome caused by capecitabine.
(§1) After SD rats were fed and adapted for one week (about 200 g), the rats were divided into groups, with 10 rats in each group. Then, the rats were subject to gavage administration. Capecitabine was dissolved in a 1:1 mixed solution of castor oil and ethanol and diluted for three times with PBS buffer. After gavage, the rats were fixed with a fixed cylinder, and a gel of thymidine derivative (or a compounded gel of thymidine derivative and uridine derivative) was applied to double hind paws (about 1 cm*3 cm) of the rats in group of administration (the types and concentrations are shown in Table 4), and a blank gel was applied to the group of blank (as a blank control). After approximately 4 hours of application, the rats were released after 4 hours, wiped with clean water to remove any residual drug at the application site, and allowed back to the cage. The thymidine derivative gel (or the compounded gel of thymidine derivative and uridine derivative) was administered with gavage every day. The gavage and application tests are repeated daily until the group of blank has developed obvious hand-foot syndrome.
Table 4 lists the combinations of animal experiments of capecitabine and the thymidine derivative gel (or the compounded gel of thymidine derivative and uridine derivative) and the corresponding experimental results (wherein, the data in the column of control rate=the occurrence rate of hand-foot syndrome in group of blank—the occurrence rate of hand-foot syndrome in group of administration). […]

[4] = system: HaCaT cells; assay: Relief of 5-FU proliferative toxicity to HaCaT cells (CCK-8 cell survival); type: cell-based; details: for Cell Survival Rate (increased percentage of cell survival compared with the Group of 5-FU): 5-Fu 20 μM, HaCaT cells
Procedure, shortened: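 HaCaT keratinocytes (5000–10000/well) cultured 24 h, then exposed 48 h to 5-FU alone or with thymidine derivative, or thymidine plus uridine derivative mix, versus solvent-matched blanks. Survival by CCK-8; value is % increase in survival over 5-FU alone, t-test.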

[5] = system: hand-foot syndrome caused by Doxorubicin in rats; assay: Rat model of hand-foot syndrome caused by doxorubicin, gel application; type: in vivo; details: Doxorubicin 7 mg/kg tail intravenous injection once every three days for 20 days, gel 3 wt%, 30 days
Experimental: as §1
(§2) The effects of thymidine derivative or a combination of thymidine derivative and uridine derivative on the chemotherapeutic drug-induced hand-foot syndrome in a rat model were tested according to the method in Examples 30-40. At the same time, paws of rats after treatment with the drug were taken and observed for their inflammation by hematoxylin-eosin staining (HE) and immunohistochemical staining (IHC).
(§3) The test thymidine derivative or the combination of thymidine derivative and uridine derivative, as well as the final concentration of the test compounds were shown in Table 8. Table 8 lists the animal experiment combination of a chemotherapeutical drug and the thymidine derivative gel (or the compound gel of thymidine derivative and uridine derivative) and the corresponding experimental results (wherein, the data in the column of control rate=the occurrence rate of hand-foot syndrome in Group of blank—the occurrence rate of hand-foot syndrome in Group of administration).

[6] = system: hand-foot syndrome caused by Cytarabine in rats; assay: Rat model of hand-foot syndrome caused by cytarabine, gel application; type: in vivo; details: Cytarabine 120 mg/kg twice per day, gel 3 wt%, 30 days
Experimental: as §1, §2, §3

[7] = system: hand-foot syndrome caused by Acelarin (NUC-1031) in rats; assay: Rat model of hand-foot syndrome caused by Acelarin (NUC-1031), gel application; type: in vivo; details: Acelarin (NUC-1031) 130 mg/kg intraperitoneal injection twice a week, gel 3 wt%, 30 days
Experimental: as §1, §2, §3

[8] = system: human colon cancer cell HCT116 xenograft; assay: Effect of thymidine derivative gel on therapeutical effect of capecitabine, HCT116 xenograft nude mice; type: in vivo, mouse; details: oral capecitabine 1.5 mmol/kg, 14 days
Experimental: A BALB/C nude mouse (human colon cancer cell HCT116 xenograft) model was established. After the model was stable, the model mice were divided into four groups (in which the average tumor size of each of the 4 groups was kept as consistent as possible). Except the blank group (containing 5 mice), there were 10 mice in each group, which were subject to gavage and application experiments.
Capecitabine was dissolved in a mixed solution of castor oil:ethanol=1:1 (volume ratio). Prior to gavage, the mixture was diluted with PBS to the desired concentration (diluted for about 3 times with PBS solution). […]
A: Group of blank: 5 mice with tumors, no gavage and no drug application; B: blank group: 10 mice with tumors, oral gavage with capecitabine (1.5 mmol/kg), application with blank gel on the back (once per day for 14 days); C: 0.5% T1 group: 10 mice with tumors, oral gavage of capecitabine, application with 0.5% T1 gel (administration method and frequency are the same as those in group B); D: 2% T1 gel group: 10 mice with tumors, oral gavage of capecitabine, application of 2% T1 gel (administration method and frequency are the same as those in group B). […] The tumor size was measured and recorded every 2 days. After 14 days of the experiment, the mice were dissected to take out the tumor, which was weighed and recorded.

[9] = gel 3 wt%, read-out: Control Rate Forepaws
[10] = gel 3 wt%, read-out: Control Rate Hindpaws
[11] = selected compound final concentration 12.5 μM
[12] = selected compound final concentration 25 μM
[13] = selected compound final concentration 50 μM

O=c1[nH]cc(F)c(=O)[nH]1 [5-FU, fluorouracil (5-FU)]
blood cells [1]: can reduce all the blood cells that could be detected

CCC1(CC(C)=O)OCCc2c1[nH]c1c(CC(=O)OC[C@H]3O[C@@H](n4cc(C)c(=O)[nH]c4=O)C[C@@H]3O)cccc21 (stereo partly shown) [T26]
pain in rats (von Frey mechanical sensitivity) [2]: could significantly improve pain in rats
Control Rate Forepaws ([3]; gel 1 wt%): 22.22%
Control Rate Hindpaws ([3]; gel 1 wt%): 44.44%
Control Rate Forepaws ([3]; gel 3 wt%): 57.14%
Control Rate Hindpaws ([3]; gel 3 wt%): 71.43%

Cc1cn([C@H]2C[C@H](O)[C@@H](COC(=O)C(C)(C)C)O2)c(=O)[nH]c1=O [T4]
pain in rats (von Frey mechanical sensitivity) [2]: did not significantly improve pain in rats
inhibition in vivo at 3 % [3, 9]: 28.6%
inhibition in vivo at 3 % [3, 10]: 42.9%
Control Rate ([3]; SD rats, gel 2 wt% on hind paws): 32.86%
activation at 1 µM ([4]; Homo sapiens, HaCaT, increase vs Group of 5-FU, 5-FU 20 μM, compound 1 μM, 48 h, read-out: Cell Survival Rate): 20 to 36%
activation at 10 µM ([4]; Homo sapiens, HaCaT, increase vs Group of 5-FU, 5-FU 20 μM, compound 10 μM, 48 h, read-out: Cell Survival Rate): 65 to 72%
activation at 100 µM ([4]; Homo sapiens, HaCaT, increase vs Group of 5-FU, 5-FU 20 μM, compound 100 μM, 48 h, read-out: Cell Survival Rate): 80 to 90%
activation at 500 µM ([4]; Homo sapiens, HaCaT, increase vs Group of 5-FU, 5-FU 20 μM, compound 500 μM, 48 h, read-out: Cell Survival Rate): 70 to 77%
activation at 1000 µM ([4]; Homo sapiens, HaCaT, increase vs Group of 5-FU, 5-FU 20 μM, compound 1000 μM, 48 h, read-out: Cell Survival Rate): 2 to 7%

COc1ccc2cc([C@@H](C)C(=O)OC[C@H]3O[C@@H](n4cc(C)c(=O)[nH]c4=O)C[C@@H]3O)ccc2c1 [T41]
Control Rate Forepaws [5]: 57.14%
Control Rate Hindpaws [5]: 42.86%
pain in rats (von Frey mechanical sensitivity) [2]: could significantly improve pain in rats
inhibition in vivo at 3 % [3, 9]: 50%
inhibition in vivo at 3 % [3, 10]: 62.5%
inhibition in vivo at 5 % ([3]; read-out: Control Rate Forepaws): 50%
inhibition in vivo at 5 % ([3]; read-out: Control Rate Hindpaws): 75%
Cell Survival Rate (increased percentage of cell survival compared with the Group of 5-FU) [4, 11]: 39%-46%
Cell Survival Rate (increased percentage of cell survival compared with the Group of 5-FU) [4, 12]: 47%-55%
Cell Survival Rate (increased percentage of cell survival compared with the Group of 5-FU) [4, 13]: 44%-51%

CC(=O)Oc1ccccc1C(=O)OC[C@H]1O[C@@H](n2cc(C)c(=O)[nH]c2=O)C[C@@H]1O [T37]
pain in rats (von Frey mechanical sensitivity) [2]: could significantly improve pain in rats
Control Rate Forepaws [6]: 22.22%
Control Rate Hindpaws [6]: 44.44%
inhibition in vivo at 3 % [3, 9]: 28.6%
inhibition in vivo at 3 % [3, 10]: 42.9%
Control Rate Forepaws [7]: 42.86%
Control Rate Hindpaws [7]: 71.43%
Cell Survival Rate (increased percentage of cell survival compared with the Group of 5-FU) ([4]; selected compound final concentration 0.8 μM): 36%-44%
Cell Survival Rate (increased percentage of cell survival compared with the Group of 5-FU) ([4]; selected compound final concentration 1.6 μM): 55%-62%
Cell Survival Rate (increased percentage of cell survival compared with the Group of 5-FU) ([4]; selected compound final concentration 3.13 μM): 61%-69%
Cell Survival Rate (increased percentage of cell survival compared with the Group of 5-FU) ([4]; selected compound final concentration 6.25 μM): 68%-76%
Cell Survival Rate (increased percentage of cell survival compared with the Group of 5-FU) [4, 11]: 52%-60%
Cell Survival Rate (increased percentage of cell survival compared with the Group of 5-FU) [4, 12]: 49%-57%
Cell Survival Rate (increased percentage of cell survival compared with the Group of 5-FU) [4, 13]: 52%-59%

CCCCCOC(=O)Nc1nc(=O)n([C@@H]2O[C@H](C)[C@@H](O)[C@H]2O)cc1F [capecitabine, reference compound]
volume of tumor tissue versus group without capecitabine gavage [8]: significantly smaller than that in Group A
